Experiments:
Assay type in all cases: physicochemical
[1] = Particle size profile of irbesartan samples; conditions: for D (v, 0.1) particle size: 10 % of particles smaller; for D (v, 0.5) particle size: 50 % of particles smaller; for D (v, 0.9) particle size: 90 % of particles smaller
Experimental: The particle size profile of samples A-D of irbesartan were tested (see Table 1). It can be seen that across the range the particle sizes were very similar. Thus any difference in dissolution kinetics of samples from the relevant batch cannot be attributed to particle size. The D values represent particle size medians from the detected particle size distribution curves. D(v, x) means that 100x % of particles are smaller than the corresponding D value, and 100-100x % of particles are larger. The samples were also subjected to the Brunauer-Emmett-Teller (BET)-nitrogen adsorption analysis to determine the total surface area of the samples as follows: […]

[2] = Water surface area from GVS data, Excess Surface Work (ESW) model; conditions: for Water Surface Area (WSA): ESW adsorption model, GVS adsorption runs
Experimental: The xy-data pairs used for the sorption isotherms (mRH, RH-levels) can also be used for a different approach to describe the sorption isotherm. Here, the change in chemical potential Δμ for the sorption process at each relative humidity (and at temperature T) is calculated:
with: R=Universal Gas Constant • T=Temperature • p=water partial pressure at humidity RH and temperature T • ps=water vapour saturation pressure at temperature T
Based on the change in chemical potential Δμ, an energetic term φ can be calculated for each relative humidity, termed excess surface work (ESW) according to J. Adolphs and M. J. Setzer, Journal of Colloid and Interface Science, vol. 180, pp. 70-76, 1996:
with: Φ=excess surface work • Δμ=change in chemical potential • nads=number of moles of water adsorbed in equilibrium at humidity RH
A plot of Φ/RT vs. nads can then be generated, to allow the value of nads at the minimum value of Φ/RT to be deduced. This value of nads corresponds to nmono.
The calculated monolayer coverage nmono obtained from the application of the gas sorption models to GVS data can be re-calculated to water surface area Awater, taking into account the mean cross sectional area aH2O occupied by one water molecule upon adsorption:
with: Awater=water surface area [m^2/g] • aH2O mean cross sectional area of one water molecule adsorbed 10^−19 m^2/molecule • nmono=apparent amount adsorbed in the monolayer [mol] • NL=Lochschmidt number=6×10^23 molecules/mol • mdry (sample)=dry mass of sample [g]
Likewise, the determination of the ESW water surface area is illustrated for sample A as follows.
A plot of Φ/RT versus the change in mass for sample A was then generated (see FIG. 3). From this, it could be deduced that the minimum value of Φ/RT corresponded to a change in mass of 0.0369 mg, the apparent monolayer amount. This is turn equated to a WSA of 6.65 m^2/g, using equation (A4) above, wherein mdry=18.57 mg.

[3] = Powder dissolution in 0.1N HCl (37° C.); conditions: for dissolution characteristics: 0.1N HCl, 37° C., FIG. 4, compared with samples B and C; for dissolution kinetics: in the media, FIGS. 4 and 5
Experimental: FIG. 4: Powder dissolution profiles in 0.1N HCl (37° C.) of samples of irbesartan. Dissolution experiments were executed in 0.1N HCt (37° C.) on the four micronised samples A-D of irbesartan. […] Thus with all other parameters being equal, it can be seen that the improved dissolution profile directly correlates to the increased water surface area of samples A and D.

| SMILES | D (v, 0.1) particle size [1] | D (v, 0.5) particle size [1] | D (v, 0.9) particle size [1] | Water Surface Area (WSA) [2] | Water Surface Area (WSA) ([2]; listed as sample A) | apparent monolayer amount (change in mass at minimum of Φ/RT) ([2]; ESW model, mdry=18.57 mg) | dissolution characteristics [3] | dissolution kinetics [3] | dissolution profile ([3]; compared with samples A and D) |
| --- | --- | --- | --- | --- | --- | --- | --- | --- | --- |
| CCCCC1=NC2(CCCC2)C(=O)N1Cc1ccc(-c2ccccc2-c2nnn[nH]2)cc1 [Sample A, irbesartan] | 1 μm | 3 μm | 12 μm | 6.7 m^2/g | 6.65 m^2/g | 0.0369 mg | enhanced dissolution characteristics | significantly faster dissolution kinetics |  |
| CCCCC1=NC2(CCCC2)C(=O)N1Cc1ccc(-c2ccccc2-c2nnn[nH]2)cc1 [Sample C, irbesartan] | 1 μm | 5 μm | 13 μm | 4.3 m^2/g |  |  |  |  |  |
| CCCCC1=NC2(CCCC2)C(=O)N1Cc1ccc(-c2ccccc2-c2nnn[nH]2)cc1 [Sample B, irbesartan] | 1 μm | 3 μm | 17 μm | 3.0 m^2/g |  |  |  |  | significantly poorer dissolution profile |
| CCCCC1=NC2(CCCC2)C(=O)N1Cc1ccc(-c2ccccc2-c2nnn[nH]2)cc1 [Sample D, irbesartan] | 1 μm | 3 μm | 7 μm | 6.5 m^2/g |  |  | enhanced dissolution characteristics | significantly faster dissolution kinetics |  |

Source: patent publication US20090312380A1, “NOVEL COMPOSITIONS AND METHODS” (priority 2006, published 2009)
